Experimental data taken from patent publication US10774102B2, “Galactoside inhibitor of galectins” (Galecto Biotech AB, priority 2015, dated 2020).
pKd: −log10 of the molar value.

target: galectin-3 (Homo sapiens (Human), UniProt P17931); test: Fluorescence anisotropy assay of galectin-3 affinity (compound inhibits galectin binding to a fluorescein tagged saccharide probe); conditions: high affinity probe, 50 nM galectin-3, 100 nM albumin
Procedure: 100 nM albumin was included as a carrier to prevent protein loss at such low concentration of galectin.

Sequence of galectin-3 (P17931 whole entry): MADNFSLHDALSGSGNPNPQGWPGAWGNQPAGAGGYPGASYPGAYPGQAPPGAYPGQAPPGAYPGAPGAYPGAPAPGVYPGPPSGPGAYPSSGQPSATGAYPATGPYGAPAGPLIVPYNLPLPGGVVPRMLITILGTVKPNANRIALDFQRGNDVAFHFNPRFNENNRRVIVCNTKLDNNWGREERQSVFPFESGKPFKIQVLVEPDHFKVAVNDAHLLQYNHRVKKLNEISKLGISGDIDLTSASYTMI

Compound	pKd
OC[C@H]1O[C@H](Sc2cccc(C(F)(F)F)c2)[C@H](O)[C@@H](n2cc(-c3cc(F)c(F)c(F)c3)nn2)[C@H]1O [Example 14, 3-(Trifluoromethyl)phenyl 3-deoxy-3-[4-(3,4,5-trifluorophenyl)-1H-1,2,3-triazol-1-yl]-1-thio-α-D-galactopyranoside]	6.89
Cc1ccc(S[C@H]2O[C@H](CO)[C@H](O)[C@H](n3cc(-c4cc(F)c(F)c(F)c4)nn3)[C@H]2O)cc1C [Example 1, 3,4-Dimethylphenyl 3-deoxy-3-[4-(3,4,5-trifluorophenyl)-1H-1,2,3-triazol-1-yl]-1-thio-α-D-galactopyranoside]	6.82
OC[C@H]1O[C@H](Sc2cccc(Cl)c2)[C@H](O)[C@@H](n2cc(-c3cc(F)c(F)c(F)c3)nn2)[C@H]1O [Example 19, 3-Chlorophenyl 3-deoxy-3-[4-(3,4,5-trifluorophenyl)-1H-1,2,3-triazol-1-yl]-1-thio-α-D-galactopyranoside]	7.31
OC[C@H]1O[C@H](Sc2ccncc2)[C@H](O)[C@@H](n2cc(-c3cc(F)c(F)c(F)c3)nn2)[C@H]1O [Example 4, 4-Pyridyl 3-deoxy-3-[4-(3,4,5-trifluorophenyl)-1H-1,2,3-triazol-1-yl]-1-thio-α-D-galactopyranoside]	6.72
OCC1O[C@H](SCc2ccccc2)C(O)[C@@H](n2cc(-c3cc(F)c(F)c(F)c3)nn2)[C@H]1O (stereo partly drawn) [Example 10, Benzyl 3-deoxy-1-thio-3-[4-(3,4,5-trifluorophenyl)-1H-1,2,3-triazol-1-yl]-1-thio-α-D-galactopyranoside]	5.95

The next lines start with the values.

pKd	Compound
6.24	OC[C@H]1O[C@H](Oc2ccc(Cl)cc2)[C@H](O)[C@@H](n2cc(-c3cc(F)c(F)c(F)c3)nn2)[C@H]1O [Example 34, 4-Chlorophenyl 3-deoxy-3-[4-(3,4,5-trifluorophenyl)-1H-1,2,3-triazol-1-yl]-α-D-galactopyranoside]
6.00	CCCC(=O)c1cn([C@@H]2[C@@H](O)[C@@H](Sc3ccc(Cl)c(Cl)c3)O[C@H](CO)[C@@H]2O)nn1 [Example 102, 3,4-Dichlorophenyl 3-deoxy-3-[4-(propyl-carbonyl)-1H-1,2,3-triazol-1-yl]-1-thio-α-D-galactopyranoside]
7.51	O=S(=O)(c1cncc(Br)c1)[C@H]1O[C@H](CO)[C@H](O)[C@H](n2cc(-c3cc(F)c(F)c(F)c3)nn2)[C@H]1O [Example 92, 5-Bromopyridin-3-yl 3-deoxy-3-[4-(3,4,5-trifluorophenyl)-1H-1,2,3-triazol-1-yl]-α-D-galactopyranosyl sulfone]
7.08	COc1ccc(Cl)cc1S[C@H]1OC(CO)[C@H](O)[C@H](n2cc(-c3cc(F)c(F)c(F)c3)nn2)C1O (stereo partly drawn) [Example 65, 5-Chloro-2-methoxyphenyl 3-deoxy-1-thio-3-[4-(3,4,5-trifluorophenyl)-1H-1,2,3-triazol-1-yl]-α-D-galactopyranoside]
7.21	O=S(=O)(c1ccc(Cl)c(Cl)c1)[C@H]1O[C@H](CO)[C@H](O)[C@H](n2cc(-c3cc(F)c(F)c(F)c3)nn2)[C@H]1O [Example 25, 3,4-Dichlorophenyl 3-deoxy-3-[4-(3,4,5-trifluorophenyl)-1H-1,2,3-triazol-1-yl]-α-D-galactopyranosyl sulfone]
7.39	[O-][S+](c1cncc(Cl)c1)[C@H]1OC(CO)[C@H](O)[C@H](n2cc(-c3cc(F)c(F)c(F)c3)nn2)C1O (single isomer, unassigned; isomer 2) [Example 94, 5-Chloropyridin-3-yl 3-deoxy-3-[4-(3,4,5-trifluorophenyl)-1H-1,2,3-triazol-1-yl]-α-D-galactopyranosyl sulfoxide, isomer 2]
7.89	O=S(=O)(c1ccc(Cl)c(Cl)c1)[C@H]1O[C@H](CO)[C@H](O)[C@H](n2cc(-c3c(F)c(F)c(F)c(F)c3F)nn2)[C@H]1O [Example 53, 3,4-Dichlorophenyl 3-deoxy-3-[4-(2,3,4,5,6-pentafluorophenyl)-1H-1,2,3-triazol-1-yl]-α-D-galactopyranosyl sulfone]
